Experiments:
[1] = set-up: method as in PMID 20425757; details: one volunteer, sage tea, overall intake 1.02 mg 1,8-cineole; cited from earlier work
[2] = Determination of the ratios of enantiomers of chiral metabolites in human milk on chiral GC capillaries; type: in vivo
Description: The separation of the chiral metabolites of 1,8-cineole was successfully achieved using different β- or γ-cyclodextrin-based stationary phases (Rt-bDEXsa, Rt-bDEXse, Rt-bDEXsm and Rt-yDEXsa) for gas chromatographic analysis. Table S1, in the supplementary material, lists the usable separation phases and the respective retention indices (determined according to van den Dool and Kratz) for each pair of enantiomers. It was therefore decided to use the following capillaries for the analysis of the human milk samples: Rt-bDEXsm for separation of 2,3-dehydro-, α2,3-epoxy-, 2-oxo-, 3-oxo- and 9-hydroxy-1,8-cineole, and Rt-yDEXsa for separation of α2-hydroxy-, α3-hydroxy- and β2-hydroxy-1,8-cineole, under the GC conditions described in the experimental section.
For GC-MS analyses, an Agilent MSD quadrupole system (GC 7890A with MSD 5975C, Agilent Technologies, Waldbronn, Germany) coupled with a CIS 4C (cooled injection system) and an MPS 2 auto-sampler (Gerstel GmbH & Co. KG, Duisburg, Germany) were used. Data collection and analysis were performed with the MSD ChemStation E.02.00.493 (Agilent Technologies, Inc.) software. Quantification experiments were carried out on DB-FFAP and DB-5 capillaries (30 m length, 0.25 mm inner diameter, 0.25 µm film thickness, Agilent J&W GC Columns, USA), and for monitoring of the ratio of enantiomers the chiral capillaries Rt-bDEXsa, Rt-bDEXse, Rt-bDEXsm and Rt-yDEXsa (30 m length, 0.32 mm inner diameter, 0.25 µm film thickness, Restek GmbH, Bad Homburg, Germany) were utilised. Pre-columns of uncoated, deactivated fused silica (0.53 mm inner diameter, 0.5 to 3.5 m length) were used to ensure that no potentially present low-volatile residues could contaminate the analytical capillaries. The temperature programme of the column oven was as follows: 40 °C for 2 min, 4 °C/min up to 170 °C, 40 °C/min up to 230 °C (Rt-DEX capillaries), 240 °C (DB-FFAP) and 250 °C (DB-5), respectively, and hold time at end temperature of 5 to 10 min. As carrier gas, helium was used at a flow rate of 1.3 mL/min (velocity 41.1 cm/s). Injection of 1 or 2 µL was performed by the auto-sampler.
For the separation of the pairs of enantiomers of the chiral metabolites of 1,8-cineole, four different capillaries (Rt-bDEXsa, Rt-bDEXse, Rt-bDEXsm, and Rt-yDEXsa) were evaluated for optimisation of the peak-to-peak resolution of the enantiomers by injecting a mixture of all the metabolites in a dichloromethane solution and by varying the heating rate. Besides the separation of each pair of enantiomers from each other, it was also important to confirm that no other metabolite coeluted with any one of the enantiomers, because the milk samples would most probably contain all metabolites. Moreover, the separation conditions for the mixture of reference substances were also tested on some human milk sample extracts and modified accordingly, where necessary, to avoid coelution with interfering matrix compounds.
For calculation of the ratio of enantiomers (that is, the relative abundance of each enantiomer to the not separated mixture of enantiomers), the peak area of each enantiomer was divided by the sum of the peak areas of both enantiomers and multiplied by 100. With the known concentrations of the chiral metabolites in each milk sample, the absolute concentration of each single enantiomer was also calculated by multiplying the concentration with the respective percentage.

## CC1(C)OC2(C)CCC1CC2O (stereo not drawn) [a2-hydroxy-1,8-cineole, α2-hydroxy-1,8-cineole]
[1]
  Concentration in plasma: 14.62 ng/mL
[2]
  Enantiomeric ratio in human milk: nearly enantiomerically pure
[2]; human milk sample B-2a, excluded from Table 3
  Percentage E1 in single sample (outlier): 40.5%
[2]; human milk samples, Figure 5
  Percentage E1, range as described for boxplot: under 10%
